Like-named read-outs stand apart in the source and are kept apart here.
Key:
Assay in all cases: biochemical
Parameters in all cases: DiscoveRx KINOMEscan active site-directed competition binding; percent of control kinase bound to immobilised ligand
p38-gamma = biological target: T1, p38-gamma (Homo sapiens, UniProt P53778)
T1 construct: gene MAPK12
T1 sequence (P53778 1-367): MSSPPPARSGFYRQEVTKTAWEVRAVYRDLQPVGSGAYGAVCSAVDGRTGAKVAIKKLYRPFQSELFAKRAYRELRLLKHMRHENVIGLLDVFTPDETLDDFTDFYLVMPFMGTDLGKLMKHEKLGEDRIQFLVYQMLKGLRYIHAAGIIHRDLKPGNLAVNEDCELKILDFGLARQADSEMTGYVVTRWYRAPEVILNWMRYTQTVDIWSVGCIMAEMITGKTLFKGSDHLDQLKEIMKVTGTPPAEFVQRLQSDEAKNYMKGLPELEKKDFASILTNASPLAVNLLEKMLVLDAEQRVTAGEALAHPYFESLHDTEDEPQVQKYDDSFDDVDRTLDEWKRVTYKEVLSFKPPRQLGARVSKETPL

ULK2 = biological target: T2, ULK2 (Homo sapiens, UniProt Q8IYT8)
T2 sequence (Q8IYT8 1-1036): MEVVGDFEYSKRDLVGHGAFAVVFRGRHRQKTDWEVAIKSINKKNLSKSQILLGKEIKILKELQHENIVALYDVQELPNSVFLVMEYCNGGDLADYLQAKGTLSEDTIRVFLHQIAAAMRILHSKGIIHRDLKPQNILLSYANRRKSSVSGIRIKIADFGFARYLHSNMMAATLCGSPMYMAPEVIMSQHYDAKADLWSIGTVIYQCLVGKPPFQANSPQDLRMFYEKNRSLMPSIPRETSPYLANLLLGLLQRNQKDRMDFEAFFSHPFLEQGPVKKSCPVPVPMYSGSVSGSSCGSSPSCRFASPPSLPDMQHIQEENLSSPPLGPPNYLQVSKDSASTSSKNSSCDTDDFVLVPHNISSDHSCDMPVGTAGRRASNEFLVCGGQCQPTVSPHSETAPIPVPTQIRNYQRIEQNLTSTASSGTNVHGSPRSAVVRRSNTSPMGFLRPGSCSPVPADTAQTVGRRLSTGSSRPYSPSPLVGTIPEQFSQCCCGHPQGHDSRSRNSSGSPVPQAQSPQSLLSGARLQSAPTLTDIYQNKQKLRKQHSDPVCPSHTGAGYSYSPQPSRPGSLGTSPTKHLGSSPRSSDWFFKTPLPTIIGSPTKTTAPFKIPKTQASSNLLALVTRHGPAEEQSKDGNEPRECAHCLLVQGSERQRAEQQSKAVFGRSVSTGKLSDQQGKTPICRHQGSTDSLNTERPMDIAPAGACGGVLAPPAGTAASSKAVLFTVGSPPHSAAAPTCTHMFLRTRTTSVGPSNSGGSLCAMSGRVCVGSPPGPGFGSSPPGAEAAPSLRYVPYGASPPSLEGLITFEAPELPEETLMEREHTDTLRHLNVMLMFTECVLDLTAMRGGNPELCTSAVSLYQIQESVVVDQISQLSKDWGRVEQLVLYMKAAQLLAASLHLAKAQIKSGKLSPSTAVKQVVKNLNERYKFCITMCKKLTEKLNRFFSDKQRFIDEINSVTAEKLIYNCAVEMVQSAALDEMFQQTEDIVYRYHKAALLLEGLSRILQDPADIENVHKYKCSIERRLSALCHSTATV

DCAMKL3 = biological target: T3, DCAMKL3 (Homo sapiens, UniProt Q9C098)
T3 construct: gene DCLK3
T3 sequence (Q9C098 1-648): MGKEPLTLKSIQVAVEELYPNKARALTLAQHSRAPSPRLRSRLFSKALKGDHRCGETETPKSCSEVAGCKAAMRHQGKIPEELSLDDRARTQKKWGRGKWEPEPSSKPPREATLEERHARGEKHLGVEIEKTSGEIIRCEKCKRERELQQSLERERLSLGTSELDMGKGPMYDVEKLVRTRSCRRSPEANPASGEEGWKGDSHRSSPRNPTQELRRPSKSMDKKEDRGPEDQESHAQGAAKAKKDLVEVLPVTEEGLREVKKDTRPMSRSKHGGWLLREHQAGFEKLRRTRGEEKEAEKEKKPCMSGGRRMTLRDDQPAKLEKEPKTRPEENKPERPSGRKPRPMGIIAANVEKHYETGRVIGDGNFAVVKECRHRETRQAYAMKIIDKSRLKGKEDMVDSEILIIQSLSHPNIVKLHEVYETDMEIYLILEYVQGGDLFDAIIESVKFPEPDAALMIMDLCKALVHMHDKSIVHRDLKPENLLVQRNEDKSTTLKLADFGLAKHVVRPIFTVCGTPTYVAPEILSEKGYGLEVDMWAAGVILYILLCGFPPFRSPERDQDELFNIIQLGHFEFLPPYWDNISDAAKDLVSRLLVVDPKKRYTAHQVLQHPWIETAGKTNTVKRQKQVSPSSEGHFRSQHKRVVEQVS

ABL1-phosphorylated = biological target: T4, ABL1-phosphorylated (Homo sapiens, UniProt P00519)
T4 construct: phosphorylated

CDK8 = CDK8 (Homo sapiens, UniProt P49336)
[1] = biological target: T5, ABL1(F317I)-nonphosphorylated (Homo sapiens, UniProt P00519, F317I)
T5 construct: nonphosphorylated

[2] = read-out: Talazoparib (BMN 673) / %Ctrl @ 10000nM
[3] = read-out: Olaparib / %Ctrl @ 10000nM
[4] = read-out: Rucaparib / %Ctrl @ 10000nM, binding competition, % of control
[5] = read-out: Niraparib (MK-4827) / %Ctrl @ 10000nM

Sequence of CDK8 (P49336 whole entry): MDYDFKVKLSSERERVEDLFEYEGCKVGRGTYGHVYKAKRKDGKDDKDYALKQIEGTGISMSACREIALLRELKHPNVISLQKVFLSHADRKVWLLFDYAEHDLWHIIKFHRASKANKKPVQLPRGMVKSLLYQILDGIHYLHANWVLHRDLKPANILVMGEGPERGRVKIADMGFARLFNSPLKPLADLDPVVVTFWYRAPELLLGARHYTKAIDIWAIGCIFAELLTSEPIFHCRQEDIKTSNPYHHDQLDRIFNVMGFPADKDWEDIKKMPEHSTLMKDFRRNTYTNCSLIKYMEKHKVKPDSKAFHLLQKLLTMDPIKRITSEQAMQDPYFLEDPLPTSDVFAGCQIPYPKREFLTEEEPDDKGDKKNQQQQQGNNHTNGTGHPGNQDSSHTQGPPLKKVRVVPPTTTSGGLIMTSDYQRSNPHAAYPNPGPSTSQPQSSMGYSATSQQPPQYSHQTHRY
T4 sequence (P00519 whole entry): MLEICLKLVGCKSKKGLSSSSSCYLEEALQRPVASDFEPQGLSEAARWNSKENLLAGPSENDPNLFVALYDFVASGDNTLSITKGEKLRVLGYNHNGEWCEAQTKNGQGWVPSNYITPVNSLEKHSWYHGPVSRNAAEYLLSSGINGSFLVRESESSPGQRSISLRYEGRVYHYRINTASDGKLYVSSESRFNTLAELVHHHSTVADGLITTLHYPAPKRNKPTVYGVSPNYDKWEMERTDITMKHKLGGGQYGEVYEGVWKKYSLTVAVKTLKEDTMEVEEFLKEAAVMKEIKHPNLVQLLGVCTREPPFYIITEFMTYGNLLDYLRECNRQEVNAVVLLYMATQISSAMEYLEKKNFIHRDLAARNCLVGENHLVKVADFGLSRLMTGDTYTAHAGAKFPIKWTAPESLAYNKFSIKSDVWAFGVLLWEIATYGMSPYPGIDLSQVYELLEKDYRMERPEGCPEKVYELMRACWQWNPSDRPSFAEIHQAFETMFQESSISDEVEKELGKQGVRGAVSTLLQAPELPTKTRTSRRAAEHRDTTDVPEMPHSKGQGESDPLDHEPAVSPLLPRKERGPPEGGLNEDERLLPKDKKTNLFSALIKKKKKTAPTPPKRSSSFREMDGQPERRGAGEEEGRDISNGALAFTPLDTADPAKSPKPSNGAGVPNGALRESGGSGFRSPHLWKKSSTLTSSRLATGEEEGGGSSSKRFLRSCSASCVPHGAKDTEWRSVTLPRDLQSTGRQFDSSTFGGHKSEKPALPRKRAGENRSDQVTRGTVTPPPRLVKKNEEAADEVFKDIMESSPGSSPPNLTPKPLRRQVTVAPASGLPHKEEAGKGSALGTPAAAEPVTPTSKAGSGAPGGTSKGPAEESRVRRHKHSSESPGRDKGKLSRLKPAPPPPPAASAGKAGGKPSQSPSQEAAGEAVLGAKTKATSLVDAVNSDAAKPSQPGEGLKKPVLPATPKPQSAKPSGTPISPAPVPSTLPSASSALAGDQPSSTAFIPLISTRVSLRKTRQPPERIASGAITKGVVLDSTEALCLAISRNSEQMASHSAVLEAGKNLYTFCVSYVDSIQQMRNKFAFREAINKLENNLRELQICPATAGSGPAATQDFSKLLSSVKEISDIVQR
T5 sequence (P00519 whole entry F317I): as the sequence (P00519 whole entry) above, with F317I counted along it

## Cn1ncnc1[C@H]1c2n[nH]c(=O)c3cc(F)cc(c23)N[C@@H]1c1ccc(F)cc1 [Talazoparib]
p38-gamma; [2]
  percent of control binding at 10 µM: 60%
ULK2; [2]
  percent of control binding at 10 µM: 100%
DCAMKL3; [2]
  percent of control binding at 10 µM: 100%
ABL1-phosphorylated; [2]
  percent of control binding at 10 µM: 100%
CDK8; [2]
  percent of control binding at 10 µM: 99%
[1]; [2]
  percent of control binding at 10 µM: 96%

## O=C(c1cc(Cc2n[nH]c(=O)c3ccccc23)ccc1F)N1CCN(C(=O)C2CC2)CC1 [Olaparib]
p38-gamma; [3]
  percent of control binding at 10 µM: 83%
ULK2; [3]
  percent of control binding at 10 µM: 85%
DCAMKL3; [3]
  percent of control binding at 10 µM: 88%
ABL1-phosphorylated; [3]
  percent of control binding at 10 µM: 98%
CDK8; [3]
  percent of control binding at 10 µM: 100%
[1]; [3]
  percent of control binding at 10 µM: 66%

## CNCc1ccc(-c2[nH]c3cc(F)cc4c3c2CCNC4=O)cc1 [Rucaparib]
p38-gamma; [4]
  percent of control binding at 10 µM: 58%
ULK2; [4]
  percent of control binding at 10 µM: 74%
DCAMKL3; [4]
  percent of control binding at 10 µM: 44%
ABL1-phosphorylated; [4]
  percent of control binding at 10 µM: 98%
CDK8; [4]
  percent of control binding at 10 µM: 86%
[1]; [4]
  percent of control binding at 10 µM: 71%

## NC(=O)c1cccc2cn(-c3ccc([C@@H]4CCCNC4)cc3)nc12 [Niraparib]
p38-gamma; [5]
  percent of control binding at 10 µM: 48%
ULK2; [5]
  percent of control binding at 10 µM: 93%
DCAMKL3; [5]
  percent of control binding at 10 µM: 85%
ABL1-phosphorylated; [5]
  percent of control binding at 10 µM: 80%
CDK8; [5]
  percent of control binding at 10 µM: 68%
[1]; [5]
  percent of control binding at 10 µM: 86%
